Reference: patent US20200016058A1, “HORNY LAYER FUNCTION IMPROVING AGENT” (Ajinomoto Co., Inc., priority 2017, published 2020)
Where a SMILES comes first, the peptide text is derived from it.

Experiments:
[1] = tested on: laminin 332; conditions: reported in WO 2011/040082; cited from earlier work
[2] = tested on: filaggrin; assay: Gene expression test using normal human epidermal keratinocytes (RT-PCR), filaggrin; type: cell-based; conditions: Keratinocyte, 48 hours, relative value to control, read-out: FLG (filaggrin) gene expression amount
Description: (§1) Normal human epidermal keratinocytes (Kurabo Industries Ltd.) were cultured with HuMedia KG2 (Kurabo Industries Ltd.) at 37° C. and 5% CO2 under saturated vapor. Cells that have become confluent were seeded in a 6-well plate with a seeding density of 3.0×10^5 (cells/well).
(§2) For each evaluation sample, each D-amino acid adjusted in the culture medium so as to be 100 μM or 500 μM was used. On the next day of seeding, each evaluation sample was adjusted to be 100 μM or 500 μM, and each well culture medium was exchanged. Culturing was performed for 48 hours, RNA was extracted from the cells using RN easy mini kit (Qiagen), which was synthesized into cDNA using High-Capacity cDNA Reverse Transcription Kit with RNase Inhibitor (Thermo Fisher). With this cDNA as a template, a sample added group and a control group were compared with each other by the RT-PCR method (7500 fast system (Thermo Fisher)) to evaluate gene expression amounts of filaggrin, involucrin, loricrin, keratin 10, and transglutaminase 1. In Table 4, FLG, IVL, K10, LOR, and TGM indicate filaggrin, involucrin, keratin 10, loricrin, and transglutaminase 1, respectively.

[3] = tested on: filaggrin, involucrin, loricrin, keratin 10, and transglutaminase 1; assay: Gene expression test using normal human epidermal keratinocytes, text summary over the target genes; type: cell-based; conditions: 100 μM or 500 μM, summary of Table 4; for expression amounts of the respective target genes: all five target genes
Description: as §1, §2

[4] = tested on: keratin 10; assay: Gene expression test using normal human epidermal keratinocytes (RT-PCR), keratin 10; type: cell-based; conditions: Keratinocyte, 48 hours, relative value to control, read-out: K10 (keratin 10) gene expression amount
Description: as §1, §2

[5] = tested on: transglutaminase 1; assay: Gene expression test using normal human epidermal keratinocytes (RT-PCR), transglutaminase 1; type: cell-based; conditions: 48 hours, relative value to control
Description: as §1, §2

[6] = tested on: involucrin; assay: Gene expression test using normal human epidermal keratinocytes (RT-PCR), involucrin; type: cell-based; conditions: Keratinocyte, 48 hours, relative value to control, read-out: IVL (involucrin) gene expression amount
Description: as §1, §2

[7] = tested on: loricrin; assay: Gene expression test using normal human epidermal keratinocytes (RT-PCR), loricrin; type: cell-based; conditions: 48 hours, relative value to control
Description: as §1, §2

[8] = orally administered; cited filing; cited from earlier work
[9] = JP 2012-006870; determined only by the subjectivity of subjects; cited from earlier work
[10] = tested on: filaggrin, involucrin, transglutaminase 1, keratin 10, and loricrin; conditions: cited from earlier work

expression amounts of the respective target genes of filaggrin, involucrin, keratin 10, and transglutaminase 1 [3]	expression amounts of the respective target genes of filaggrin, involucrin, keratin 10, and loricrin [3]	SMILES	laminin 332 production promotion effect [1]	fold induction at 100 µM [2]	fold induction at 500 µM [2]	fold induction at 100 µM [4]	fold induction at 500 µM [4]	TGM (transglutaminase 1) gene expression amount ([5]; 100 μM)	fold induction at 100 µM [6]	fold induction at 500 µM [6]	LOR (loricrin) gene expression amount ([7]; 500 μM)	expression amounts of the respective target genes [3]	TGM (transglutaminase 1) gene expression amount ([5]; 500 μM)	LOR (loricrin) gene expression amount ([7]; 100 μM)	TEWL value [8]	moisture retaining effect [9]	expression promotion action of moisture retention-related proteins such as filaggrin ([10]; applicant's assessment of the prior art)	expression of filaggrin, involucrin, transglutaminase 1, keratin 10, and loricrin ([10]; reported in WO 2014/175001 and JP 2012-232920)
increases	–	C[C@@H](N)C(=O)O [D-Ala, D-alanine]	promote the production of laminin 332	1.23	1.18	1.47	1.21	1.20	1.28	1.15	–	–	–	–	–	–	–	–
–	increases	NC(=O)C[C@@H](N)C(=O)O [D-Asn, D-asparagine]	–	–	1.55	–	1.21	–	–	1.34	1.80	–	–	–	–	–	–	–
–	–	N[C@H](CC(=O)O)C(=O)O [D-Asp, D-aspartic acid]	not expressed	1.35	1.45	2.43	2.1	1.13	1.49	1.42	2.10	increases	1.20	2.34	–	–	–	–
–	–	N[C@H](CCC(=O)O)C(=O)O [D-Glu, D-glutamic acid]	–	–	1.69	–	1.25	–	–	1.34	2.07	increases	1.13	–	reduces	–	–	–
–	–	NCCCC[C@@H](N)C(=O)O [D-Lys, D-lysine]	–	1.48	1.29	1.35	2.16	1.12	1.27	1.72	1.39	increases	–	2.02	–	expressed	–	–
–	–	N[C@H](Cc1ccccc1)C(=O)O [D-Phe, D-phenylalanine]	–	–	1.52	–	1.32	–	–	1.32	1.78	increases	1.26	–	–	–	–	–
–	–	N[C@H](Cc1c[nH]c2ccccc12)C(=O)O [D-Trp, D-tryptophan]	–	1.77	3.3	2.44	3.43	1.42	2.05	2.43	3.45	increases	1.50	1.71	–	–	–	–
–	–	CC[C@H](C)[C@@H](N)C(=O)O [D-allo-Ile, D-allo-isoleucine]	–	1.3	1.21	1.31	1.41	–	1.18	1.13	–	increases	1.27	1.31	–	–	–	–
–	–	O=C(O)[C@H]1C[C@H](O)CN1 [D-hydroxyproline, reference compound]	promote the production of laminin 332	–	–	–	–	–	–	–	–	–	–	–	–	–	–	–
–	–	NCCCC[C@H](N)C(=O)O [L-lysine, reference compound]	–	–	–	–	–	–	–	–	–	–	–	–	–	expressed	–	–
–	–	NCC(=O)N1CCC[C@H]1C(=O)O [glycylproline] (H-Gly-Pro-OH)	–	–	–	–	–	–	–	–	–	–	–	–	–	–	weak	promoted
